Columns and labels:
E. coli Topoisomerase IV [1] = molecular target: T1, E. coli Topoisomerase IV (Escherichia coli, UniProt P0AFI2+P20083); assay: biochemical; set-up: purchased John Innes Enterprises (Norwich, UK); details: read-out: Topo IV, R (relaxation reaction) IC50
Procedure: Topoisomerase IV-mediated relaxation assays and decatenation assays were performed as previously described (see Peng and Marians, 1993). […] Decatenation assays contained topoisomerase IV (4 nM), 40 mM Tris HCl pH 7.5 at 30° C., 6 mM MgCl2, 10 mM DTT, 1 mM spermidine.HCl, 100 mM potassium glutamate, 0.5 mM ATP, 0.5 mg/mL BSA, 200 ng of kinetoplast DNA, and inhibitor where appropriate.

Human topoisomerase I = molecular target: T2, Human topoisomerase I (Homo sapiens, UniProt P11387); assay: Human topoisomerase I-mediated relaxation assay; type: biochemical; details: read-out: Topo I Human IC50
T2 construct: purchased TopoGEN Inc. (Port Orange, Fla., USA)
T2 sequence (P11387 1-765): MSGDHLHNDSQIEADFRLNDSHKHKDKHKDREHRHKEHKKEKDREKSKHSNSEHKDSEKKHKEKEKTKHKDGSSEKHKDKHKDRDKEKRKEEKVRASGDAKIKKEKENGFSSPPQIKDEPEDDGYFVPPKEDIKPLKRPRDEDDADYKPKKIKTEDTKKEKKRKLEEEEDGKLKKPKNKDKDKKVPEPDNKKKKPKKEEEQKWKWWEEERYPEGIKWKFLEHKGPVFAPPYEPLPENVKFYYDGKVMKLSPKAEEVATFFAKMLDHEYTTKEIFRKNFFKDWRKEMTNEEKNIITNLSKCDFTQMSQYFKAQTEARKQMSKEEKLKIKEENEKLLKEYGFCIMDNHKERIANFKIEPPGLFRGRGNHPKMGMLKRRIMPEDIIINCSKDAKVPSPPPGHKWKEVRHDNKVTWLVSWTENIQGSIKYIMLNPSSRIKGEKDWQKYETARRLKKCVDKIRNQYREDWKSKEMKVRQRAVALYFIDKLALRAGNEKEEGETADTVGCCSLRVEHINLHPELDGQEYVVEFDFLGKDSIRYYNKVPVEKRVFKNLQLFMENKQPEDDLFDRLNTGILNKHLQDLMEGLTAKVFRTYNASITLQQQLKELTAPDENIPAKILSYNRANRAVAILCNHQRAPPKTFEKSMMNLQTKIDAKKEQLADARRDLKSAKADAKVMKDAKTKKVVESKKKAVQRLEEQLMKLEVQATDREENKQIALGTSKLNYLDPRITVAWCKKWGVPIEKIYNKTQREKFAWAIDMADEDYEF
Procedure: Human topoisomerase I-mediated relaxation assays were performed as per the manufacturer's instructions. Topoisomerase I (2 nM) was added to reactions containing 10 mM of Tris.HCl, pH 7.9, 150 mM NaCl, 100 μM spermidine.HCl, 5% glycerol, 0.1% BSA, 4.6 nM of […] pBR322 DNA, and inhibitor where appropriate.
(§1) All in vitro reactions were incubated at 37° C. for 30 minutes. The DMSO concentration in each reaction was kept constant at 3.33%. Reactions were quenched with the addition of an equal volume of phenol/chloroform/isoamyl alcohol (25:24:1) and one tenth volume of loading buffer containing 40% sucrose, 100 mM Tris.HCl pH 7.5, 100 mM EDTA, 2 mg/mL bromophenol blue. The proteins were precipitated by vortexing, followed by centrifugation for 5 minutes at 16 000 g. The aqueous phase was loaded onto 1% agarose gels in Tris-acetate and were electrophoresed at 60 V for three hours in Tris-acetate buffer. The gels were stained in 1 μg/mL ethidium bromide. The gels were visualised using UV light and were documented and analysed using Syngene software.

E. coli Topoisomerase IV [2] = molecular target: T1, E. coli Topoisomerase IV; assay: Topoisomerase IV-mediated decatenation assay; type: biochemical; set-up: purchased John Innes Enterprises
Procedure: Topoisomerase IV-mediated relaxation assays and decatenation assays were performed as previously described (see Peng and Marians, 1993). Relaxation assays contained topoisomerase IV (20 nM), 40 mM Tris.HCl pH 7.5 at 30° C., 6 mM MgCl2, 10 mM DTT, 1 mM spermidine.HCl, 20 mM KCl, 1 mM ATP, 0.5 mg/mL BSA, 4.6 nM of supercoiled pBR322 DNA and inhibitor where appropriate. Decatenation assays contained topoisomerase IV (4 nM), 40 mM Tris HCl pH 7.5 at 30° C., 6 mM MgCl2, 10 mM DTT, 1 mM spermidine.HCl, 100 mM potassium glutamate, 0.5 mM ATP, 0.5 mg/mL BSA, 200 ng of kinetoplast DNA, and inhibitor where appropriate.
as §1

Human topoisomerase IIα = Human topoisomerase IIα (Homo sapiens, UniProt P11388); assay: Human Topoisomerase IIα decatenation assay; type: biochemical; set-up: purchased TopoGEN Inc. (Port Orange, Fla., USA); details: read-out: Topo IIα Human, D (decatenation reaction) IC50
Procedure: Human Topoisomerase IIα-mediated relaxation assays and decatenation assays were performed as per the manufacturer's instructions in a total of 20 μL. Relaxation assays contained Topoisomerase IIα (4.3 nM), 50 mM Tris.HCl pH 8,120 mM KCl, 10 mM MgCl2, 0.5 mM DTT, 0.5 mM ATP, 4.6 nM of supercoiled pBR322 DNA, and inhibitor where appropriate. Decatenation assays substituted the supercoiled DNA with 200 ng catenated kinetoplast DNA.
as §1

HT-29 cells = assay: cells; type: cell-based, human; details: Homo sapiens, HT-29; MTT, 24 hours; read-out: In vivo HT29 Cells (approximate IC50)
Procedure: (§2) Human cell cultures were initiated from frozen cell stocks (the gift of Dr J. Gavrilovic, UEA). The HT-29 line is derived from a colorectal adenocarcinoma while HeLa cells are derived from a cervical epithelial adenocarcinoma (see FIG. 35). Both human cell lines form adherent cultures and were maintained at 37° C. in T25 culture vessels as 10 mL cultures in CO2 Independent Media containing 10% foetal bovine serum (EU approved), 4 mM L-glutamine, penicillin/streptomycin (Invitrogen). A subcultivation ratio of 1:3 and 1:6 were maintained for HT-29 and HeLa lines respectively. Media was renewed every three days.
(§3) The assay to determine the effects of the heterocyclic compounds on mammalian cells is based on the cleavage of the yellow tetrazolium salt MTT to purple formazoan crystals by metabolically active cells (Roche). After incubation with MTT and solubilization, the resulting coloured solution is quantified using a scanning spectrophotometer. Each of the cell lines was trypsinised and resuspended in fresh media prior to transfer to sterile flat-bottomed microtitre plates (200 μL per well) and allowed to recover for 16 hours. Five thousand HT-29 or 7500 HeLa cells per 100 μL culture medium were incubated in the presence of the drugs in various concentrations (totalling 10 μL) for 24 hours. Cell viability was then determined by addition of MTT reagent (20 μL) in each well, as per manufacturer's instructions and incubated for a further 4 hours. Solubilization solution (100 μL) was added per well and the plates incubated overnight at 37° C. The plates were read in a spectrophotometer (scanning from 500-650 nm, signal peak at 570 nm). A representative result is illustrated in FIG. 36.

HeLa cells = assay: cells; type: cell-based, human; details: Homo sapiens, HeLa; MTT, 24 hours; read-out: In vivo HeLa Cells (approximate IC50)
Procedure: as §2, §3

T1 sequence (P20083 whole entry): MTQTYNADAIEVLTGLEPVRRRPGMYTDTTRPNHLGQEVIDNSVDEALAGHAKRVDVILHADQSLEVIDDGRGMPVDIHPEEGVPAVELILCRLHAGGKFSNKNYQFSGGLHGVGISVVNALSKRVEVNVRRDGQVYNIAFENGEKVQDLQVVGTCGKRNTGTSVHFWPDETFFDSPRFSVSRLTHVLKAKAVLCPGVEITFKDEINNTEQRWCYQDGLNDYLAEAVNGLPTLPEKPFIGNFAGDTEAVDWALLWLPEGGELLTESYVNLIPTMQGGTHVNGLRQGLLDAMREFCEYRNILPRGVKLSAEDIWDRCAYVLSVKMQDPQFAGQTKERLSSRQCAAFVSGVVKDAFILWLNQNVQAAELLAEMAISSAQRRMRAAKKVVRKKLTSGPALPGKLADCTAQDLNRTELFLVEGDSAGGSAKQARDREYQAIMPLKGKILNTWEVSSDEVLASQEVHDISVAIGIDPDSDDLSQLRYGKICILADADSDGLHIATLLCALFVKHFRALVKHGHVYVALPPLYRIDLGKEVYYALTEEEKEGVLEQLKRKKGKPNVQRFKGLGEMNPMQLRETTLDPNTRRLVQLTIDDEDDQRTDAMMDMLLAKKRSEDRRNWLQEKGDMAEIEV
T1 sequence (P0AFI2 whole entry): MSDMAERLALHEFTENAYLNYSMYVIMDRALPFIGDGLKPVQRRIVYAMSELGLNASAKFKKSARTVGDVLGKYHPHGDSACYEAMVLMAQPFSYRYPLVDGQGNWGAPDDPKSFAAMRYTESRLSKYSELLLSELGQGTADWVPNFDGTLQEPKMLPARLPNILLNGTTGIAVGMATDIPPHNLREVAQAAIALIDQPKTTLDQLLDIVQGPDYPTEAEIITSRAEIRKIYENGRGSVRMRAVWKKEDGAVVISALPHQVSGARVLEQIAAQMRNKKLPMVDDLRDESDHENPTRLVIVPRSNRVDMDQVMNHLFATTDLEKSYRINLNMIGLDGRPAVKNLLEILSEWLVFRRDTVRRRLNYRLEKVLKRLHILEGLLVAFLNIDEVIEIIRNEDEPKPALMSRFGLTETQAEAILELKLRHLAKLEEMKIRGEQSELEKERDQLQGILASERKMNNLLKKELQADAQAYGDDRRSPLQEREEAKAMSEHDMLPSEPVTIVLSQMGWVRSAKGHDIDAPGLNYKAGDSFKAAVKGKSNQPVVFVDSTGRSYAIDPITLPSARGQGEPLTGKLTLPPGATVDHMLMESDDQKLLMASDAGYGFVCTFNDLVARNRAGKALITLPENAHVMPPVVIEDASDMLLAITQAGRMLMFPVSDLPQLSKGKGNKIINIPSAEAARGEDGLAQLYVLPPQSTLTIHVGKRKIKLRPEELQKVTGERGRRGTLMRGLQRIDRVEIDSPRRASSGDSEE
Sequence of Human topoisomerase IIα (P11388 whole entry): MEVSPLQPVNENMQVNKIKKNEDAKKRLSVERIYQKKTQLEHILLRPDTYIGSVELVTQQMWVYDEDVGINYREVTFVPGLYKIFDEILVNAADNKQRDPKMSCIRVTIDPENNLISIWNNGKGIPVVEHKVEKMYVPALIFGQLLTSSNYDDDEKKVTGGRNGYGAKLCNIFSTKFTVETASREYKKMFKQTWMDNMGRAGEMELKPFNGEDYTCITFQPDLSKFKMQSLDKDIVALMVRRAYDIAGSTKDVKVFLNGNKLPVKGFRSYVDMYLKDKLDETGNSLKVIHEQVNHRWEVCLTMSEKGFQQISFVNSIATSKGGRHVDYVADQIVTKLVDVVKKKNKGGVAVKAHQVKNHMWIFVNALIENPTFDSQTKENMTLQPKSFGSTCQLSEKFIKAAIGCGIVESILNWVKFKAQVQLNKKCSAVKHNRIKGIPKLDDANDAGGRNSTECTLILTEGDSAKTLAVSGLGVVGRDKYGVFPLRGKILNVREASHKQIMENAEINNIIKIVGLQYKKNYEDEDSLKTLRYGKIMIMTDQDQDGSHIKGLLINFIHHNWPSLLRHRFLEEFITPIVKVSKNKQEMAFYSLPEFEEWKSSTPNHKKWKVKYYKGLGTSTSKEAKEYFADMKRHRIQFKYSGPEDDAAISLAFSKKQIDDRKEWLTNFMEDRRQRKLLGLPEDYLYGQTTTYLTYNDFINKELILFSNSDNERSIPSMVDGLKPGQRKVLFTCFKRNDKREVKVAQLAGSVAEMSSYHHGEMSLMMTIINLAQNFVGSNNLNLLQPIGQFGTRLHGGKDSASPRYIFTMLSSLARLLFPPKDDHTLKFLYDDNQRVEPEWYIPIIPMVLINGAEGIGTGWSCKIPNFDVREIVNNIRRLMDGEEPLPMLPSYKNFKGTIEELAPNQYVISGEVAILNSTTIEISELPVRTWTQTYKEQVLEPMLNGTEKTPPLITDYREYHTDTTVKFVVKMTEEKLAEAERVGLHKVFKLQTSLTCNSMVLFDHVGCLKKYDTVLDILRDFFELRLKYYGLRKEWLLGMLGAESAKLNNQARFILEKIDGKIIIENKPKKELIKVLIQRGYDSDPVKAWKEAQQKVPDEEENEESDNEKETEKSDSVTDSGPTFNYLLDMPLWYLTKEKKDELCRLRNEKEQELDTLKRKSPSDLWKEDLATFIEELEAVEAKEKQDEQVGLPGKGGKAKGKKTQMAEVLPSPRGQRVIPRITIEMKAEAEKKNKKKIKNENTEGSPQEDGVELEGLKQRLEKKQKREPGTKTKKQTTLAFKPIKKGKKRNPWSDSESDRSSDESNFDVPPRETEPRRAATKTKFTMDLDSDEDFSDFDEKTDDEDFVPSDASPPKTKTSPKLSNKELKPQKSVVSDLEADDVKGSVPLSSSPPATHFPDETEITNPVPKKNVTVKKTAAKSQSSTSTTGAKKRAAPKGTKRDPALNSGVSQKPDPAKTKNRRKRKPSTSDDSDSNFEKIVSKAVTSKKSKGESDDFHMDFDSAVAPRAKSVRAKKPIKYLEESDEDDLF

CC(C)(C)OC(=O)NCc1nc(C(=O)O)co1 [#6]
IC50 (E. coli Topoisomerase IV [1]): > 300 µM
IC50 (Human topoisomerase I): > 300 µM
Decatenation activity of topoisomerase IV, sensitivity (E. coli Topoisomerase IV [2]): albeit weakly
IC50 (Human topoisomerase IIα): > 250 µM
IC50 (HT-29 cells): > 75 µM
IC50 (HeLa cells): > 75 µM

— patent publication US20080234132A1, “Microcin B17 Analogs And Methods For Their Preparation And Use” (priority 2004, published 2008)
